From publication PMC9068772, “Discovery of first-in-class nanomolar inhibitors of heptosyltransferase I reveals a new aminoglycoside target and potential alternative mechanism of action” (Scientific Reports, 2022)
Where “and” joins values, the source holds several entries; their conditions need not be identical. Identical values can stand only once.

Key:
HepI [1] = target: T1, HepI (Escherichia coli, UniProt P24173); assay: Circular dichroism thermal melt of HepI; format: binding, E. coli K12; conditions: CD melt; for Increase in unfolding compared to apo HepI: HepI plus inhibitor, no ODLA; for Difference in melting temperature of HepI•ODLA complex caused by inhibitor: destabilization of HepI•ODLA
T1 construct: made in house; host or cells: E. coli One Shot BL-21-AI
Procedure: Circular dichroism melt experiments were performed in a Jasco J-810 spectropolarimeter in Starna 21-Q-2 cells (minimum volume 400 µL) sealed with Teflon tape to prevent evaporation. Parameters include 3 accumulations of data collected between 195–275 nm as a function of temperature (10–95 °C with 5° increments) at a ramp rate of 2°/min and a scanning rate of 50 nm/min. Samples were prepared by diluting a mixture of 5 μM HepI and some combination of 250 μM substrate/product and/or 100 μM inhibitor in a buffer of 10 mM Tris–HCl and 100 mM KCl (pH = 7.5). CD data was analyzed via in house script written in MATLAB R2018A that average a set of triplicate data, normalizes to a percent unfolded (assuming the protein is fully folded at 5 °C) at 222 nm as a function of temperature and fits to a sigmoid curve to determine the melt temperature (TM).

HepI [2] = target: T1, HepI; assay: Intrinsic tryptophan fluorescence of HepI; format: binding, E. coli K12; conditions: for Blue shift of HepI tryptophan emission λmax: HepI plus ligand alone, vs apo; for Blue shift of HepI tryptophan emission λmax with ODLA and inhibitor: inhibitor added to HepI•ODLA complex
Procedure: Fluorescence spectra were measured in triplicate at room temperature using 200 μL samples containing 1 μm HepI, in a 10 mm HEPES, 50 mm KCl, and 10 mm MgCl2, pH = 7.5 buffer. Samples were contained in Starna 45-Q-3 cells (minimum volume 200 µL). Substrate and inhibitor concentrations were 100 μM. All measurements were taken using a Fluoromax-4 fluorometer with an excitation slit bandpass of 2 nm and an emission slit bandpass of 3 nm (λex = 290 nm, λem = 310–450 nm). The data was subtracted from blanks, normalized and fit to a lognormal distribution (Eq. 7)[36] to determine the emission maximum (λmax) with in house scripts written in MATLAB R2018A.7 Iλ=Imax·e^-ln2/ln^2ρ·ln^2(a-λ/a-λmax)

HepI R60A = target: T2, HepI R60A (Escherichia coli, UniProt P24173, R60A); assay: HepI inhibition, ADP/NADH coupled assay (R60A mutant); format: biochemical, E. coli K12; conditions: for ΔΔG (kcal/mol) Exp: Arg60Ala relative to WT; for ΔG (kcal/mol) Exp: Arg60Ala, from Ki; for kcat: HepI R60A in presence of inhibitor
T2 construct: made in house; host or cells: E. coli One Shot BL-21-AI (stated for HepI in general)
Procedure: As previously reported[11],[14],[15], an ADP/NADH coupled assay was used to monitor HepI activity by monitoring the absorbance change at 340 nm at 37 °C on a Cary Bio 100 UV–Vis Spectrometer. Under normal conditions, the assay buffer was composed of 50 mM HEPES, 50 mM KCl, 10 mM MgCl2, pH 7.5. The coupled enzyme reaction additionally contained 100 μM phosphoenolpyruvate, 100 μM NADH, 100 μM dithiothreitol (DTT) and 0.05 U/μL of both pyruvate kinase and lactate dehydrogenase. 100 μM ADPH was used when ODLA concentration was varied and 100 μM ODLA was used when ADPH was varied. Once a stable baseline was established (~ 5 min), the reaction was initiated by addition of HepI to a final concentration of 50 nM or 100 nM (for high and lower substrate concentrations respectively) and all reported reaction rates are after background subtraction. When running 12 samples at once, plastic cuvette stirs and a repeat pipettor was used to inject 200 μL enzyme. Inhibition of HepI was monitored using the same ADP/NADH coupled assay, all conditions of the assay were the same as previously described unless otherwise stated. Ki values for each of the compounds were determined by varying compound final concentration from 100 μm to 10 nm, and a final concentration of 10 μM ODLA. Competition assays against ADPH were done with excess ODLA (100 μM) and varying ADPH from 2–0.25 μM. Competition assays against ODLA were done with excess ADPH (100 μM) and varying ODLA from 2–0.25 μM. Reactions were started with addition of enzyme and inhibitor was varied from 30–0.01 μM. Kinetics were fit to Lineweaver-Burke (Eq. 1), competitive (Eq. 2), non-competitive (Eq. 3), mixed (Eq. 4), Dixon (Eq. 5), or Cornish-Bowden (Eq. 6) models. All fitting and plotting was done through MATLAB R2018A.1 1/V1/[S]=KM/Vmax[S]+1/Vmax 2 V[S]=Vmax[S]/KM1+[I]/Ki+[S] 3 V[S]=Vmax[S]/1+([I]/Ki)/KM+[S] 4 V[S]=Vmax[S]/KM(1+[I]/Ki)+[S](1+[I]/αKi) 5 1/V[I]=KM1+I/Ki+[S]1+I/αKi/Vmax[S] 6 [S]/V[I]=KM1+I/Ki+[S]1+I/αKi/Vmax

T2 sequence (P24173 whole entry R60A): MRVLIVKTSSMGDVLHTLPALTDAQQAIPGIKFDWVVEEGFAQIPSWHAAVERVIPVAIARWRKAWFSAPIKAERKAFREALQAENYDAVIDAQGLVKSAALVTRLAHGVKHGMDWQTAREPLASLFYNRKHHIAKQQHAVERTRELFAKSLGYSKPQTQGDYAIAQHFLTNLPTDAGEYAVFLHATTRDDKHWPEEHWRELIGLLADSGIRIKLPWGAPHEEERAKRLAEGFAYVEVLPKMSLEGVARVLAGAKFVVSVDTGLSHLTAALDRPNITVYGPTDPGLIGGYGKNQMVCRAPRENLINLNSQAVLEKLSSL
T1 sequence (P24173 whole entry): as the sequence (P24173 whole entry R60A) above, with A60R counted along it

Compound | Increase in unfolding compared to apo HepI (HepI [1]) | Difference in melting temperature of HepI•ODLA complex caused by inhibitor (HepI [1]) | Melting temperature of HepI•ODLA complex with inhibitor (HepI [1]; inhibitor added to HepI•ODLA) | Blue shift of HepI tryptophan emission λmax (HepI [2]) | Blue shift of HepI tryptophan emission λmax with ODLA and inhibitor (HepI [2]) | Ki (HepI R60A) | ΔΔG (kcal/mol) Exp (HepI R60A) | ΔG (kcal/mol) Exp (HepI R60A) | kcat (HepI R60A) | Ki relative to WT (HepI R60A; HepI R60A vs WT) | Melting temperature (Tm) of HepI with ligand (HepI [1]; HepI plus ligand alone) | Melt of HepI with ADPH and inhibitor (HepI [1]; compared with HepI with ADPH alone) | Extent of unfolding of HepI•ODLA complex with inhibitor (HepI [1]; inhibitor added to HepI•ODLA)
[H]/N=C(/N)N[C@H]1[C@H](O)[C@@H](O)[C@H](O[C@@H]2O[C@@H](C)[C@](O)(C=O)[C@H]2O[C@@H]2O[C@@H](CO)[C@H](O)[C@@H](O)[C@@H]2NC)[C@@H](N/C(N)=N\[H])[C@@H]1O [Streptomycin] | ~ 20% and 15–20% | not observed | no different from substrate or product alone | no changes to the emission spectra | unperturbed | 6.25 ± 5.43 µM | 1.4 ± 0.4 kcal/mol | -7.1 ± 0.4 kcal/mol | 0.149 ± 0.013 s⁻¹ | increased the Ki values an order of magnitude | – | – | –
NC[C@H]1O[C@H](O[C@H]2[C@H](O)[C@@H](O[C@H]3O[C@H](CO)[C@@H](O)[C@H](N)[C@H]3O)[C@H](N)C[C@@H]2N)[C@H](N)C[C@@H]1O [Tobramycin] | 20% | > 30 °C | ~ 58 °C | did not alter the λmax | 6 nm | 3.4 ± 0.631 µM | 0.7 ± 0.1 kcal/mol | -7.5 ± 0.1 kcal/mol | 0.111 ± 0.013 s⁻¹ | – | ~ 37 °C | no changes from HepI with ADPH alone | about 70%
